Molecular target: HPK1 kinase (Homo sapiens, UniProt Q92918)
Test: Lantha screen assay, inhibitory effect on HPK1 kinase
Assay type: biochemical
Settings: initial compound concentration 1 µM
Method: The Lantha screen assay is used to evaluate the inhibitory effect of the compounds on HPK1 kinase. • a) Kinase buffer: 50 mM HEPES (pH 7.5), 10 mM MgCl2, 4 mM DTT, 0.01% Tween-20, 0.01% BSA. • b) Compound Preparation: The compound is diluted with DMSO, and the initial detection concentration of the compound is 1 µM and is diluted to the corresponding concentration. • c) Kinase response and termination: A kinase solution is prepared by adding kinase buffer, the kinase solution and the compound are added to the test plate to be incubated at room temperature for 10 minutes. Fluorescein-PKC and ATP are added to the kinase buffer to form a substrate solution, and 5 µl of the substrate solution is added to the test plate to start the reaction to be incubated at room temperature for 90 minutes; then, 10 µl of a mixture of antibody and EDTA is added to terminate the reaction to be incubated at room temperature for 60 minutes. • d) The date is read by Envision instrument to plot a curve with the Log concentration of the inhibitor as the X-axis and the inhibition rate as the Y-axis, and then the formula Y=Bottom + (Top-Bottom)/(1+(IC50/X)^HillSlope) is used to obtain IC50. Table 1 Inhibitory activity the compounds of the invention on HPK1 kinase

Chain of HPK1 kinase (Q92918 whole entry): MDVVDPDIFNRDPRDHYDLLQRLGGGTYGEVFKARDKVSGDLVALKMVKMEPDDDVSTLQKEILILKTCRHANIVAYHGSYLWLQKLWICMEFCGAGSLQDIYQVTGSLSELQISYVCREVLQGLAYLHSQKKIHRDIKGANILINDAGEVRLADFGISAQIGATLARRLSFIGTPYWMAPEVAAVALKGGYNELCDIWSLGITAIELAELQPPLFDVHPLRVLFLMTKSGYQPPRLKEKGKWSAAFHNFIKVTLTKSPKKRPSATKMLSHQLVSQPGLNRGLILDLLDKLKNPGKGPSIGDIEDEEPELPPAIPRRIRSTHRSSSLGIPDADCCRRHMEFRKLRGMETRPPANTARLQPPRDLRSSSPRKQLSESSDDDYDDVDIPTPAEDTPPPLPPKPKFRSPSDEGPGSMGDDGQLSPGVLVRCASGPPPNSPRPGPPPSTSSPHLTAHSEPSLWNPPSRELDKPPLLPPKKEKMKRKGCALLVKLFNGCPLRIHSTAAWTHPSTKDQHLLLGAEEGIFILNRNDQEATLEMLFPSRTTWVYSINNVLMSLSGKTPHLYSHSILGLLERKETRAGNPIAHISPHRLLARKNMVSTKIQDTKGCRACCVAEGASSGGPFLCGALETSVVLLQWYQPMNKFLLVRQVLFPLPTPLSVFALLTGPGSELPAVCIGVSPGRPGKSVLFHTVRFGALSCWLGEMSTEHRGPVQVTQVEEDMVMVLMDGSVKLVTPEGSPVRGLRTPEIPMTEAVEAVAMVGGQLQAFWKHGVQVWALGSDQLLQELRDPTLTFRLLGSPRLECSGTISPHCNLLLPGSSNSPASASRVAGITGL

SMILES | IC50 [nM]
Cc1cc(-c2cnc3[nH]cc(-c4ccc(C(=O)N(C)C)cc4)c3n2)cc(C)c1C1=CCN(CC2CCN(c3ccc(C(=O)NC4CCC(=O)NC4=O)cc3)C2)CC1 (stereo not shown) [compound 074] | < 10
Cc1cc(-c2cnc3[nH]nc(-c4ccc(C(=O)N(C)C)cc4)c3c2)cc(C)c1C1=CCN(C2CCN(c3ccc(C(=O)NC4CCC(=O)NC4=O)cn3)CC2)CC1 (stereo not shown) [compound 080] | < 10
Cc1cc(-c2cnc3[nH]cc(-c4ccc(C(=O)N(C)C)cc4)c3n2)cc(C)c1C1=CCN(CC2CN(c3ccc(NC4CCC(=O)NC4=O)cn3)C2)CC1 (stereo not shown) [compound 022] | < 10
Cc1cc(N2CC(CN3CC=C(c4c(C)cc(-c5cnc6[nH]cc(-c7ccc(N8CCOCC8)nc7)c6c5)cc4C)CC3)C2)ccc1N1CCC(=O)NC1=O [compound 103] | < 10
Cc1cc(-c2cnc3[nH]cc(-c4ccc(C(=O)N(C)C)cc4)c3n2)cc(C)c1C1=CCN(CC2CN(c3ccc(NC4CCC(=O)NC4=O)cc3F)C2)CC1 (stereo not shown) [compound 106] | < 10
Cc1cc(-c2cnc3[nH]cc(-c4ccc(C(=O)N(C)C)nc4)c3n2)cc(C)c1C1=CCN(CC2CN(c3ccc(C(=O)NC4CCC(=O)NC4=O)cc3)C2)CC1 (stereo not shown) [compound 030] | < 10
Cc1cc(N2CC3CC(N4CC=C(c5c(C)cc(-c6cnc7[nH]cc(-c8ccc(C(=O)N(C)C)cc8)c7c6)cc5C)CC4)CC3C2)ccc1N1CCC(=O)NC1=O (stereo not shown) [compound 115] | < 10
Cc1cc(-c2cnc3[nH]cc(-c4ccc(C(=O)N(C)C)cc4)c3n2)cc(C)c1C1=CCN(CC2CN(c3ccc4c(=O)n(C5CCC(=O)NC5=O)ccc4c3)C2)CC1 (stereo not shown) [compound 084] | < 10
Cc1cc(-c2cnc(N)c(Oc3ccc(C(=O)N(C)C)cc3)n2)cc(C)c1C1=CCN(CC2CN(c3ccc(C(=O)NC4CCC(=O)NC4=O)cc3)C2)CC1 (stereo not shown) [compound 093] | < 10
Cc1cc(-c2cnc3[nH]cc(-c4ccc(C(=O)N(C)C)cc4)c3n2)cc(C)c1C1=CCN(CC2CCN(C(=O)c3ccc(Cl)c(N4CCC(=O)NC4=O)c3)CC2)CC1 [compound 120] | < 10
CN(C)C(=O)c1ccc(-c2c[nH]c3ncc(-c4ccc(C5=CCN(CC6CN(c7ccc(C(=O)NC8CCC(=O)NC8=O)cc7)C6)CC5)c(C5CCCN5)c4)nc23)cc1 (stereo not shown) [compound 058] | < 10
COCC(C)N1CCC(n2cc(-c3c[nH]c4ncc(-c5cc(C)c(C6=CCN(CC7CN(c8ccc(N9CCC(=O)NC9=O)c(C)c8)C7)CC6)c(C)c5)cc34)cn2)CC1 (stereo not shown) [compound 128] | < 10
Cc1cc(-c2cnc3[nH]cc(-c4ccc(C(=O)N(C)C)cc4)c3n2)cc(C)c1C1=CCN(CC#Cc2cccc3c2n(C)c(=O)n3C2CCC(=O)NC2=O)CC1 (stereo not shown) [compound 046] | < 10
Cc1cc(-c2cnc3[nH]nc(-c4ccc(C(=O)N(C)C)cc4)c3n2)cc(C)c1C1=CCN(CC2CCN(c3ccc(N4CCC(=O)NC4=O)c(F)c3)C2)CC1 (stereo not shown) [compound 076] | < 10
Cc1cc(-c2cnc3[nH]cc(-c4ccc(C(=O)N(C)C)cc4)c3n2)cc(C)c1C1=CCN(C(=O)CCc2cc(F)c(N3CCC(=O)NC3=O)c(F)c2)CC1 [compound 047] | < 10
Cc1cc(-c2cnc3[nH]cc(-c4ccc(C(=O)N(C)C)cc4)c3c2)cc(C)c1C1=CCN(CC2CCN(C(=O)c3ccc(Cl)c(N4CCC(=O)NC4=O)c3)CC2)CC1 [compound 126] | < 10

SMILES | IC50 [nM]
Cc1cc(-c2cnc3[nH]nc(-c4ccc(C(=O)N(C)C)cc4)c3c2)cc(C)c1C1=CCN(CC2CN(c3ncc(C(=O)NC4CCC(=O)NC4=O)o3)C2)CC1 (stereo not shown) [compound 077] | < 10
COc1ccc(C(=O)N2CC(CN3CC=C(c4c(C)cc(-c5cnc6[nH]cc(-c7ccc(C(=O)N(C)C)cc7)c6n5)cc4C)CC3)C2)cc1N1CCC(=O)NC1=O [compound 001] | < 10
Cc1cc(N2CC(CN3CC=C(c4c(C)cc(-c5cnc6[nH]cc(-c7cnn(C8CCN(C9CCC9)CC8)c7)c6c5)cc4C)CC3)C2)ccc1N1CCC(=O)NC1=O [compound 122] | < 10
Cc1cc(C2CC(CN3CC=C(c4c(C)cc(-c5cnc6[nH]cc(-c7ccc(C(=O)N(C)C)cc7)c6n5)cc4C)CC3)C2)ccc1N1CCC(=O)NC1=O (stereo not shown) [compound 039] | < 10
Cc1cc(-c2cnc3[nH]cc(-c4ccc(C(=O)N(C)C)cc4)c3c2)cc(C)c1C1=CCN(CC2CN(c3ccc(C(=O)NC4CCC(=O)NC4=O)cc3)C2)CC1 (stereo not shown) [compound 063] | < 10
Cc1cc(N2CC(CN3CC=C(c4c(C)cc(-c5cnc(N)c(Oc6cnn(C7CCN(C)CC7)c6)n5)cc4C)CC3)C2)ccc1N1CCC(=O)NC1=O [compound 092] | < 10
Cc1cc(N2CC(CCN3CC=C(c4c(C)cc(-c5cnc6[nH]cc(-c7ccc(C(=O)N(C)C)cc7)c6n5)cc4C)CC3)C2)ccc1N1CCC(=O)NC1=O [compound 127] | < 10
Cc1cc(-c2cnc(N)c(OCc3ccc(C(=O)N(C)C)cc3)n2)cc(C)c1C1=CCN(CC2CN(c3ccc(C(=O)NC4CCC(=O)NC4=O)cc3)C2)CC1 (stereo not shown) [compound 094] | < 10
Cc1cc(-c2cnc(N)c(Oc3cnn(C4CCN(C)CC4)c3)n2)cc(C)c1C1=CCN(CC2CN(c3ccc(C4CCC(=O)NC4=O)cc3)C2)CC1 (stereo not shown) [compound 096] | < 10
Cc1cc(N2CC(CN3CC=C(c4c(C)cc(-c5cnc6[nH]cc(-c7cnn(C8CCN(C(C)CC(=O)N(C)C)CC8)c7)c6c5)cc4C)CC3)C2)ccc1N1CCC(=O)NC1=O (stereo not shown) [compound 136] | < 10
Cc1cc(-c2cnc(N)c(Oc3cnn(C4CCN(C)CC4)c3)n2)cc(C)c1C1=CCN(CC2CN(c3ccc(C(=O)NC4CCC(=O)NC4=O)cc3)C2)CC1 (stereo not shown) [compound 095] | < 10
COc1cc(N2CC(CN3CC=C(c4c(C)cc(-c5cnc6scc(-c7ccc(C(=O)N(C)C)cc7)c6n5)cc4C)CC3)C2)ccc1C(=O)NC1CCC(=O)NC1=O (stereo not shown) [compound 083] | < 10
Cc1cc(-c2cnc3[nH]cc(-c4ccc(C(=O)N(C)C)cc4)c3n2)cc(C)c1C1=CCN(CC2CN(c3ccc4c(c3)c(N3CCC(=O)NC3=O)nn4C)C2)CC1 [compound 143] | < 10
COc1ccc(C(=O)C2CCC(N3CC=C(c4c(C)cc(-c5cnc6[nH]cc(-c7ccc(C(=O)N(C)C)cc7)c6n5)cc4C)CC3)C2)cc1N1CCC(=O)NC1=O (stereo not shown) [compound 044] | < 10
Cc1cc(N2CC(CN3CC=C(c4c(C)cc(-c5cnc6[nH]cc(-c7cnn(C8CCOCC8)c7)c6c5)cc4C)CC3)C2)ccc1N1CCC(=O)NC1=O [compound 114] | < 10
Cc1cc(-c2cnc3[nH]nc(-c4ccc(C(=O)N(C)C)cc4)c3c2)cc(C)c1C1=CCN(CC2CCN(C(=O)c3ccc(F)c(N4CCC(=O)NC4=O)c3)C2)CC1 (stereo not shown) [compound 078] | < 10

Results, then the compound that gave them:

IC50 [nM] | SMILES
< 10 | Cc1cc(-c2cnc3[nH]cc(-c4ccc(C(=O)N(C)C)cc4)c3n2)cc(C)c1C1=CCN(CC2CN(c3ccc(C(=O)NC4CCC(=O)NC4=O)c(F)c3)C2)CC1 (stereo not shown) [compound 100]
< 10 | Cc1cc(-c2cnc3[nH]cc(-c4ccc(C(=O)N(C)C)cc4)c3n2)cc(C)c1C1=CCN(C2CN(Cc3ccc(F)c(N4CCC(=O)NC4=O)c3)C2)CC1 [compound 038]
< 10 | Cc1cc(-c2cnc3[nH]cc(-c4ccc(C(=O)N(C)C)cc4)c3n2)cc(C)c1C1=CCN(C2CN(c3cc(F)c(C4CCC(=O)NC4=O)c(F)c3)C2)CC1 (stereo not shown) [compound 007]
< 10 | Cc1cc(-c2cnc3[nH]cc(-c4ccc(C(=O)N(C)C)cc4)c3n2)cc(C)c1C1=CCN(C2CC(C(=O)c3ccc(F)c(N4CCC(=O)NC4=O)c3)C2)CC1 (stereo not shown) [compound 037]
< 10 | Cc1cc(-c2cnc3[nH]cc(-c4ccc(C(=O)N(C)C)cc4)c3n2)cc(C)c1C1=CCN(C2CN(c3ccc(C4CCC(=O)NC4=O)cc3)C2)CC1 (stereo not shown) [compound 048]
< 10 | Cc1cc(-c2cnc3[nH]cc(-c4ccc(C(=O)N(C)C)cc4)c3n2)cc(C)c1C1=CCN(C(=O)C2CN(c3ccc(C4CCC(=O)NC4=O)cc3)C2)CC1 (stereo not shown) [compound 060]
< 10 | Cc1cc(-c2cnc3[nH]cc(-c4ccc(C(=O)N(C)C)cc4)c3n2)cc(C)c1C1=CCN(CC2CN(c3ccc4c(c3)c(C3CCC(=O)NC3=O)nn4C)C2)CC1 (stereo not shown) [compound 145]
< 10 | Cc1cc(C(=O)N2CC(N3CC=C(c4c(C)cc(-c5cnc6[nH]cc(-c7ccc(C(=O)N(C)C)cc7)c6n5)cc4C)CC3)C2)ccc1C1CCC(=O)NC1=O (stereo not shown) [compound 010]
< 10 | Cc1cc(-c2cnc3[nH]cc(-c4ccc5c(c4)C(C)(C)OC5=O)c3n2)cc(C)c1C1=CCN(C2CN(c3ccc(C4CCC(=O)NC4=O)cc3)C2)CC1 (stereo not shown) [compound 066]
< 10 | Cc1cc(-c2cnc3[nH]cc(-c4ccc(C(=O)N(C)C)cc4)c3n2)cc(C)c1C1=CCN(CC(=O)Cc2ccc(C3CCC(=O)NC3=O)c(F)c2)CC1 (stereo not shown) [compound 006]
< 10 | Cc1cc(-c2cnc3[nH]cc(-c4ccc(C(=O)N(C)C)cc4)c3n2)cc(C)c1C1=CCN(CC2CN(c3ccc(C4CCC(=O)NC4=O)cc3)C2)CC1 (stereo not shown) [compound 102]
< 10 | Cc1cc(-c2cnc3[nH]cc(-c4ccc(C(=O)N(C)C)cc4)c3n2)cc(C)c1C1=CCN(CC2CN(c3ccc(NC4CCC(=O)NC4=O)cc3)C2)CC1 (stereo not shown) [compound 043]
< 10 | Cc1cc(-c2cnc3[nH]cc(-c4ccc(C(=O)N(C)C)cc4)c3n2)cc(C)c1C1=CCN(CC2CN(c3ccc(NC4CCC(=O)NC4=O)c(F)c3)C2)CC1 (stereo not shown) [compound 019]
< 10 | Cc1cc(-c2cnc3[nH]cc(-c4ccc(C(=O)N(C)C)cc4)c3n2)cc(C)c1C1=CCN(CC2CN(c3ccc(C(=O)N[C@H]4CCC(=O)NC4=O)c(F)c3)C2)CC1 [compound 071]
